Experimental data published in publication PMC3843955 (Antiviral research, 2013).
Values joined by “and” are separate entries in the source; they are usually repeats but may differ in a detail not shown here. Equal entries are not always repeated. Where two headings read alike, the source gives them in different places.

Experiments:
MRC-5 fibroblasts = test: CellTiter-Glo cytotoxicity assay, MRC-5; type: cell-based, human; conditions: uninfected MRC-5, ± standard deviation; for Yield inhibition MRC-5 TD50: CellTiter-Glo cytotoxicity assay after 5 d exposure to drugs; for Spread inhibition MRC-5 TD50: CellTiter-Glo cytotoxicity assay after 14 d exposure to drugs
HCMV = HCMV inhibition across spread inhibition and yield reduction assays; conditions: TD50 versus anti-HCMV EC50
MCMV [1] = conditions: read-out: EC50 for MCMV, cited from earlier work
MCMV [2] = conditions: sub-lethal MCMV infection in mice; ref Go et al., 2011; cited from earlier work
[3] = human, in vivo; cited from earlier work

Structure (SMILES)	Yield inhibition MRC-5 TD50 (MRC-5 fibroblasts)	Spread inhibition MRC-5 TD50 (MRC-5 fibroblasts) [µM]	cytotoxicity TD50 fold higher than antiviral EC50 (HCMV)	EC50 (MCMV [1]; ref Go et al., 2011) [µM]	viral load in livers and spleen (MCMV [2])	peak plasma level [3]	EC50 (MCMV [1]; ref Lembo et al., 2000) [µM]	peak plasma concentration [3] [µM]
N/C(=N\O)c1cc(O)c(O)c(O)c1 [TX, trimidox]	166 ± 57 µM	86 ± 4.2	1.5- to 2 fold and 2 fold	–	–	–	–	–
O=C(NO)c1ccc(O)c(O)c1 [DX, didox]	256 ± 5.7 µM	146 ± 0.7	1.5- to 2 fold and 2 fold	10 to 25	failed to decrease viral load in livers and spleen	approximately 300 µM	–	–
NC(=O)NO [HU, hydroxyurea]	14,500 ± 5400 µM	4253 ± 701	–	–	–	–	3	264 to 660
